For experiment [1], the system named is octopamine sensitive adenylate cyclase, whole body homogenate from third instar A. aegypti larvae. In words: Determination of cyclic AMP level (octopamine sensitive adenylate cyclase activity). The experiment is classed as biochemical, Aedes aegypti. As to conditions: 100 μM test compound; octopamine 100 μM alone as comparator. The protocol:
The in vitro octopamine sensitive adenylate cyclase activity was investigated according to the modified method of Pratt and Pryor [35]. The whole bodies of 75 third instar A. aegypti larvae (106.2 mg) were homogenized in 500 μL of 2 mM Tris-maleate buffer (pH 7.4) containing 0.8 mM ethylene glycol tetraacetic acid (EGTA). Adenylate cyclase activity was measured using a cAMP Biotrak Enzyme immunoassay system according to the manufacturer’s instructions. The assay was conducted in a total volume of 100 μL containing 80 mM Tris-maleate buffer, 5 mM theophylline (to inhibit phosphodiesterase activity), 2 mM MgSO4, 0.5 mM adenosine triphosphate (ATP), 0.2 mM EGTA, 50 μL of whole body homogenate (equivalent to 4.22 μg protein), and 1 μL of the test compounds in Tris-maleate buffer containing 0.2% ethanol. After incubation for 5 min at 20°C, the reaction was initiated by the addition of ATP. Incubation was carried out at 30°C for 3 min in a shaking water bath. The reaction was terminated by boiling for 2 min, and then the assay tube was cooled and centrifuged for 10 min at 8000 g. The 50 μL aliquots of the supernatant were assayed for cAMP level.
The polystyrene microplates (1 strip of 8 wells) coated with a goat anti-mouse polyclonal antibody were used. Fifty microliters of primary antibody (mouse monoclonal antibody) solution was added to each well except the blank wells (or the nonspecific binding (NSB) wells). The wells covered with the adhesive strip were incubated for 1 h at 25°C in a shaking incubator (480 rpm), followed by four times washing steps, each with 400 μL of wash buffer. The 50 μL of the test samples for cAMP determination and cAMP standard were added to wells. Control, blank (NSB), and zero standard wells were added with 50 μL of the diluent RD5-55 buffer. The 50 μL of cAMP conjugate (horseradish peroxidase-labeled cAMP) was then added to wells. The plate covered with a new adhesive strip was incubated for 2 h at 25°C on the shaker, followed by the four times washing steps. Then, 200 μL of substrate solution (equal volume of stabilized hydrogen peroxide and stabilized chromogen) was added to each well, and the test plate was incubated for 30 min at 25°C on the benchtop in darkness. Finally, the reaction was stopped by adding 100 μL of stop solution (2 N sulfuric acid) to each well. Optical densities at 450 and 540 nm were measured using the VersaMax microplate reader. The readings at 540 nm were subtracted from the readings at 450 nm. The cAMP concentrations were expressed as nmol/μg protein. Results were expressed as mean ± SE of duplicate samples of three independent experiments.

In experiment [2] the target is AChE from A. aegypti larvae (Aedes aegypti, UniProt A4GND7). The experiment in a line: Acetylcholinesterase assay (microplate). The experiment is classed as biochemical. The settings on record: acetylthiocholine iodide hydrolysis at 30°C and pH 8.0. The protocol: Third instar larvae of A. aegypti was used in all experiments. […] After filtering through cheese cloth, the homogenate was centrifuged at 1000 g at 4°C for 5 min. The supernatant was used as the acetylcholinesterase (AChE) preparation. Protein content was determined by the Bradford dye method using BSA as the standard. Microplate AChE assay was carried out following the method of Hemingway et al. adapted from Ellman et al.. The reaction mixture consisted of 50 μL of the crude enzyme preparation, 150 μL of 0.1 M phosphate buffer, 20 μL of 3 mM DTNB in phosphate buffer (pH 7.0), and 1 μL of various concentrations of each test compound in ethanol. The reaction mixture was incubated at 30°C for 5 min and 20 μL of 32 mM ATChI was then added to the mixture. After incubation for 30 min, the reaction was stopped by adding 20 μL of 5 mM eserine salicylate. The absorbance was recorded at 412 nm using a VersaMax microplate reader (Molecular Devices, Sunnyvale, CA). Results were expressed as mean ± SE of triplicate samples of three independent experiments.
IC50 values and cAMP levels were subjected to ANOVA. […] Means ± SE of untransformed data are reported. Concentration–mortality data were subjected to probit analysis.

Experiment [3] deals with third instar larvae from wild Aedes albopictus. The experiment in a line: direct-contact mortality bioassay. As to conditions: Aedes albopictus, 24 h, read-out: LC50, mg/L (95% CL). As to the method: (§1) A direct-contact mortality bioassay was used to evaluate the toxicity of all compounds to third instar larvae from the susceptible and wild mosquito populations. Each compound in acetone (for karanjin) or methanol (for the other compounds) was suspended in distilled water with Triton X-100 (20 μL/L). Groups of 20 mosquito larvae were separately put into paper cups (270 mL) containing each test compound solution (250 mL). The OPs temephos and fenthion served as positive controls and were similarly formulated. Negative controls consisted of the acetone– or methanol–Triton X-100 solution in distilled water. […] Treated and control (acetone– or methanol–Triton X-100 solution only) larvae were held under the same conditions as those used for colony maintenance. […] All treatments were replicated three times using 20 larvae per replicate.
(§2) In separate experiments, the efficacy of the 12 experimental liquid formulations was evaluated, as stated previously. Groups of 20 mosquito larvae were separately put into paper cups containing each test solution. Temephos 200 g/L EC served as a positive control. Negative controls consisted of the ethoxylated castor oil + polyoxyethylene dodecyl mono ether solution in distilled water or water. Mortalities were recorded, as stated previously. All treatments were replicated three times using 20 larvae per replicate.
(§3) Data were corrected for control mortality using Abbott’s formula [36]. The percentages of mortality were transformed to arcsine square-root values for analysis of variance (ANOVA). […] IC50 values and cAMP levels were subjected to ANOVA. The Bonferroni multiple-comparison method was used for comparison of means. Means ± SE of untransformed data are reported. Concentration–mortality data were subjected to probit analysis.

Experiment [4] concerns third instar Culex pipiens pallens larvae. In words: direct-contact mortality bioassay. As to conditions: Culex pipiens, 24 h, read-out: LC50, mg/L (95% CL). As to the method: as §1, §2, §3
Experiment [5] deals with third instar Aedes aegypti larvae. In words: direct-contact mortality bioassay. The settings on record: Aedes aegypti, 24 h, read-out: LC50, mg/L (95% CL). As to the method:
as §1, §2, §3

In brackets after ≈: the same amount, converted by molar mass.

Chain of AChE from A. aegypti larvae (A4GND7 37-679): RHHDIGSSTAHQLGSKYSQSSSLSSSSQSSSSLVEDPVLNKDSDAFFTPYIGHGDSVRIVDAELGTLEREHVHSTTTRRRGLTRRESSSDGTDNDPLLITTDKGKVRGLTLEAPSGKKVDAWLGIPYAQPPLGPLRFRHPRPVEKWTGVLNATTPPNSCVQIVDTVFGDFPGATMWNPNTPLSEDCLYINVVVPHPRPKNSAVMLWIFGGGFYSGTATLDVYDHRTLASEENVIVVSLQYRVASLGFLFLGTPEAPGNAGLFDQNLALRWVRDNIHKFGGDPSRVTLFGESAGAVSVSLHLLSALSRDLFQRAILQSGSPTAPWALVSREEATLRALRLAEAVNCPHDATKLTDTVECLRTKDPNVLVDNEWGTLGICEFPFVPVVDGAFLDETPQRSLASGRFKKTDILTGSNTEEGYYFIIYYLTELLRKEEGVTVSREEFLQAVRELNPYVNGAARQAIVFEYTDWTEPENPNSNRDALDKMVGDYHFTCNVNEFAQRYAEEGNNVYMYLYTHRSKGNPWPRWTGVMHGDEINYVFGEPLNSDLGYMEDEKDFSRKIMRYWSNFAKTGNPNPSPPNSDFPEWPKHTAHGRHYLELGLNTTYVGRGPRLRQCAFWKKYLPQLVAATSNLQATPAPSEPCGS

For `CCCCCCCCCCCCCCCC(=O)O` [Palmitic acid (4), palmitic acid], the “cAMP level compared with that induced by octopamine” value in experiment [1] is listed as “significantly lower than that induced by octopamine”. In experiment [2], the “AChE inhibition IC50” value is “lowest of any of the compounds examined”. Also, the LC50 in experiment [3] turned out to be 85.6 mg/L (≈ 334 µM); in experiment [4] it was 34.5 mg/L (≈ 135 µM); in experiment [5], 43 mg/L (≈ 168 µM).
